This passage reports Increment %, PGE2 concentration and IC50 results from patent US10787425B2, “Thiazolidinedione derivative and use thereof” (INDUSTRY-ACADEMIC COOPERATION FOUNDATION CHOSUN UNIVERSITY, priority 2016, dated 2020).

What is called pIC50 is the IC50 on a negative log10 scale, so that one unit is a factor of ten. A higher pIC50 goes with a small IC50.

Molecules are shown by their SMILES. pIC50: −log10 of the molar value.

Sequence of 15-PGDH (P15428 whole entry): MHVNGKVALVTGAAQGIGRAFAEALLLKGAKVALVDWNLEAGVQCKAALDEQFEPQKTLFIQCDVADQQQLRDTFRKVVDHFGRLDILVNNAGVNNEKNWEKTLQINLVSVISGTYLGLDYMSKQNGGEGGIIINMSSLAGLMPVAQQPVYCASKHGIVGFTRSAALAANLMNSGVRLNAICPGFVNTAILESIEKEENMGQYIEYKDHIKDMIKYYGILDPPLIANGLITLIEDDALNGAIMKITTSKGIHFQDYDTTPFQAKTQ

One assay deals with A549 cells. The assay can be described thus: Measurement of PGE2 concentration in A549 cell medium (ELISA). The note with it: PGE2 concentration versus PBS control, 5 μM, 12 hours. Type of assay: cell-based, human. In short, it runs like this:
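A549 cells in RPMI 1640 with 8% FBS, seeded at 5×10^5 cells/well and grown 24 h at 37° C, 5% CO2; at ~80% confluence treated with 15-PGDH inhibitor at 5 μM in PBS (PBS-only negative control). After 12 h, PGE2 in the medium was measured by ELISA against a standard curve.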
Consider `O=C(CCCc1ccccc1)Oc1ccc(/C=C2\SC(=O)NC2=O)c(Cl)c1` [Compound 104, (Z)-3-chloro-4-((2,4-dioxothiazolidin-5-ylidene)methyl)phenyl 4-phenylbutanoate], for which the Increment % is on record as 213.4577%.
For the compound `CCOc1cc(/C=C2\SC(=O)NC2=O)ccc1OC(=O)c1ccccc1.O=C(O)c1ccccc1` [Compound 56, (Z)-4-((2,4-dioxothiazolidin-5-ylidene)methyl)-2-ethoxyphenyl benzoate], the Increment % is recorded as −31.65%.
With `O=C(CC1CCCC1)Oc1ccc(/C=C2\SC(=O)NC2=O)c(Cl)c1` [Compound 94, (Z)-3-chloro-4-((2,4-dioxothiazolidin-5-ylidene)methyl)phenyl 2-cyclopentylacetate], the Increment % amounted to 97.1474%.
Turning to `O=C(CCCCC1CCCCC1)Oc1ccc(/C=C2\SC(=O)NC2=O)cc1Cl` [Compound 10, (Z)-2-chloro-4-((2,4-dioxothiazolidin-5-ylidene)methyl)phenyl 5-cyclohexylpentanoate], the Increment % is listed as 89.99%.
For the compound `O=C(Cc1ccccc1)Oc1ccc(/C=C2\SC(=O)NC2=O)cc1Cl` [Compound 12, (Z)-2-chloro-4-((2,4-dioxothiazolidin-5-ylidene)methyl)phenyl 2-phenylacetate], the Increment % is on record as −34.89%.
In the case of `O=C(CC1CCCCC1)Oc1cccc(/C=C2\SC(=O)NC2=O)c1Cl` [Compound 82, (Z)-2-chloro-3-((2,4-dioxothiazolidin-5-ylidene)methyl)phenyl 2-cyclohexylacetate], the Increment % is recorded as 189.97%.
The same measure, in the same setting: the figure for `CCOc1cc(/C=C2\SC(=O)NC2=O)ccc1OC(=O)Cc1ccccc1` [Compound 57, (Z)-4-((2,4-dioxothiazolidin-5-ylidene)methyl)-2-ethoxyphenyl 2-phenylacetate] is −17.46%; for `O=C1NC(=O)/C(=C/c2ccc(OC(=O)C3CCCC3)cc2)S1` [Compound 63, (Z)-4-((2,4-dioxothiazolidin-5-ylidene)methyl)phenyl cyclopentanecarboxylate] it is 49.33%.
Same read-out and setting: under `O=C1NC(=O)/C(=C/c2ccc(OC(=O)C3CCCCC3)cc2Cl)S1` [Compound 96, (Z)-3-chloro-4-((2,4-dioxothiazolidin-5-ylidene)methyl)phenyl cyclohexanecarboxylate] stands 8.8874%; under `O=C(CC1CCCCC1)Oc1ccc(/C=C2\SC(=O)NC2=O)cc1Cl` [Compound 7, (Z)-2-chloro-4-((2,4-dioxothiazolidin-5-ylidene)methyl)phenyl 2-cyclohexylacetate], 20.36%.
Still for that read-out and setting: under `O=C(CCCc1ccccc1)Oc1ccc(/C=C2\SC(=O)NC2=O)cc1Br` [Compound 29, (Z)-2-bromo-4-((2,4-dioxothiazolidin-5-ylidene)methyl)phenyl 4-phenylbutanoate] stands 367.81%.
On to `COc1cc(/C=C2\SC(=O)NC2=O)ccc1OC(=O)CCCCc1ccccc1` [Compound 45, (Z)-4-((2,4-dioxothiazolidin-5-ylidene)methyl)-2-methoxyphenyl 5-phenylpentanoate], for which the Increment % came out at 78.78%.
On the same count and under the same terms, the figure for `O=C1NC(=O)/C(=C/c2ccc(OC(=O)C3CC3)c(Br)c2)S1` [Compound 16, (Z)-2-bromo-4-((2,4-dioxothiazolidin-5-ylidene)methyl)phenyl cyclopropanecarboxylate] is 12.12%.

Still in this assay, the particulars now being: inhibitor 5 μM, medium collected after 12 hours, ELISA.
As for `O=C(CCCc1ccccc1)Oc1ccc(/C=C2\SC(=O)NC2=O)c(Cl)c1` [Compound 104, (Z)-3-chloro-4-((2,4-dioxothiazolidin-5-ylidene)methyl)phenyl 4-phenylbutanoate], the PGE2 concentration was 349.9990 pg/mL.
`CCOc1cc(/C=C2\SC(=O)NC2=O)ccc1OC(=O)c1ccccc1.O=C(O)c1ccccc1` [Compound 56, (Z)-4-((2,4-dioxothiazolidin-5-ylidene)methyl)-2-ethoxyphenyl benzoate] returned a PGE2 concentration of 108.7675 pg/mL.
`O=C(CC1CCCC1)Oc1ccc(/C=C2\SC(=O)NC2=O)c(Cl)c1` [Compound 94, (Z)-3-chloro-4-((2,4-dioxothiazolidin-5-ylidene)methyl)phenyl 2-cyclopentylacetate]: the PGE2 concentration amounted to 220.1299 pg/mL.
In the case of `O=C(CCCCC1CCCCC1)Oc1ccc(/C=C2\SC(=O)NC2=O)cc1Cl` [Compound 10, (Z)-2-chloro-4-((2,4-dioxothiazolidin-5-ylidene)methyl)phenyl 5-cyclohexylpentanoate], the PGE2 concentration was determined as 520.1337 pg/mL.
`O=C(Cc1ccccc1)Oc1ccc(/C=C2\SC(=O)NC2=O)cc1Cl` [Compound 12, (Z)-2-chloro-4-((2,4-dioxothiazolidin-5-ylidene)methyl)phenyl 2-phenylacetate] registered a PGE2 concentration of 77.92 pg/mL.
Same read-out and setting: under `O=C(CC1CCCCC1)Oc1cccc(/C=C2\SC(=O)NC2=O)c1Cl` [Compound 82, (Z)-2-chloro-3-((2,4-dioxothiazolidin-5-ylidene)methyl)phenyl 2-cyclohexylacetate] stands 610.1325 pg/mL.
Turning to `CCOc1cc(/C=C2\SC(=O)NC2=O)ccc1OC(=O)Cc1ccccc1` [Compound 57, (Z)-4-((2,4-dioxothiazolidin-5-ylidene)methyl)-2-ethoxyphenyl 2-phenylacetate], the PGE2 concentration is 131.3485 pg/mL.
On the same count and under the same terms, the figure for `O=C1NC(=O)/C(=C/c2ccc(OC(=O)C3CCCC3)cc2)S1` [Compound 63, (Z)-4-((2,4-dioxothiazolidin-5-ylidene)methyl)phenyl cyclopentanecarboxylate] is 237.6336 pg/mL; for `O=C1NC(=O)/C(=C/c2ccc(OC(=O)C3CCCCC3)cc2Cl)S1` [Compound 96, (Z)-3-chloro-4-((2,4-dioxothiazolidin-5-ylidene)methyl)phenyl cyclohexanecarboxylate] it is 121.5809 pg/mL.
For the compound `O=C(CC1CCCCC1)Oc1ccc(/C=C2\SC(=O)NC2=O)cc1Cl` [Compound 7, (Z)-2-chloro-4-((2,4-dioxothiazolidin-5-ylidene)methyl)phenyl 2-cyclohexylacetate], the PGE2 concentration is 329.5084 pg/mL.
On to `O=C(CCCc1ccccc1)Oc1ccc(/C=C2\SC(=O)NC2=O)cc1Br` [Compound 29, (Z)-2-bromo-4-((2,4-dioxothiazolidin-5-ylidene)methyl)phenyl 4-phenylbutanoate], for which the PGE2 concentration is 922.5414 pg/mL.
Still for that read-out and setting: the figure for `COc1cc(/C=C2\SC(=O)NC2=O)ccc1OC(=O)CCCCc1ccccc1` [Compound 45, (Z)-4-((2,4-dioxothiazolidin-5-ylidene)methyl)-2-methoxyphenyl 5-phenylpentanoate] is 362.494 pg/mL; for `O=C1NC(=O)/C(=C/c2ccc(OC(=O)C3CC3)c(Br)c2)S1` [Compound 16, (Z)-2-bromo-4-((2,4-dioxothiazolidin-5-ylidene)methyl)phenyl cyclopropanecarboxylate] it is 283.7043 pg/mL.

The target in a further assay is 15-PGDH (Homo sapiens (Human), UniProt P15428). The assay can be described thus: 15-PGDH inhibitory activity (NADH at 340 nm). Type of assay: biochemical. The note with it: concentration inhibiting 50% of 15-PGDH activity; purified 15-PGDH, 21 μM PGE2, 0.25 mM NAD+. In short, it runs like this:
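GST-purified human 15-PGDH (E. coli BL-21 LysS, 10 μg) with 21 μM PGE2 and 0.25 mM NAD+ in 50 mM Tris-HCl pH 7.5, 0.1 mM DTT. Compound tested at 0.0001–64 μM; NADH formation read by absorbance at 340 nm against a standard curve.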
`O=C(CCCc1ccccc1)Oc1ccc(/C=C2\SC(=O)NC2=O)c(Cl)c1` [Compound 104, (Z)-3-chloro-4-((2,4-dioxothiazolidin-5-ylidene)methyl)phenyl 4-phenylbutanoate] had a pIC50 of 7.13.
The compound `CCOc1cc(/C=C2\SC(=O)NC2=O)ccc1OC(=O)c1ccccc1.O=C(O)c1ccccc1` [Compound 56, (Z)-4-((2,4-dioxothiazolidin-5-ylidene)methyl)-2-ethoxyphenyl benzoate] showed a pIC50 of 6.53.
Take `O=C(CC1CCCC1)Oc1ccc(/C=C2\SC(=O)NC2=O)c(Cl)c1` [Compound 94, (Z)-3-chloro-4-((2,4-dioxothiazolidin-5-ylidene)methyl)phenyl 2-cyclopentylacetate]: the negative-log IC50 (pIC50) was 7.49.
Consider `O=C(CCCCC1CCCCC1)Oc1ccc(/C=C2\SC(=O)NC2=O)cc1Cl` [Compound 10, (Z)-2-chloro-4-((2,4-dioxothiazolidin-5-ylidene)methyl)phenyl 5-cyclohexylpentanoate], for which the pIC50 was 7.50.
Same read-out and setting: under `O=C(Cc1ccccc1)Oc1ccc(/C=C2\SC(=O)NC2=O)cc1Cl` [Compound 12, (Z)-2-chloro-4-((2,4-dioxothiazolidin-5-ylidene)methyl)phenyl 2-phenylacetate] stands 7.20; under `O=C(CC1CCCCC1)Oc1cccc(/C=C2\SC(=O)NC2=O)c1Cl` [Compound 82, (Z)-2-chloro-3-((2,4-dioxothiazolidin-5-ylidene)methyl)phenyl 2-cyclohexylacetate], 7.49; under `CCOc1cc(/C=C2\SC(=O)NC2=O)ccc1OC(=O)Cc1ccccc1` [Compound 57, (Z)-4-((2,4-dioxothiazolidin-5-ylidene)methyl)-2-ethoxyphenyl 2-phenylacetate], 6.93.
Take `O=C1NC(=O)/C(=C/c2ccc(OC(=O)C3CCCC3)cc2)S1` [Compound 63, (Z)-4-((2,4-dioxothiazolidin-5-ylidene)methyl)phenyl cyclopentanecarboxylate]: the pIC50 is 6.75.
Same read-out and setting: under `O=C1NC(=O)/C(=C/c2ccc(OC(=O)C3CCCCC3)cc2Cl)S1` [Compound 96, (Z)-3-chloro-4-((2,4-dioxothiazolidin-5-ylidene)methyl)phenyl cyclohexanecarboxylate] stands 7.57.
For `O=C(CC1CCCCC1)Oc1ccc(/C=C2\SC(=O)NC2=O)cc1Cl` [Compound 7, (Z)-2-chloro-4-((2,4-dioxothiazolidin-5-ylidene)methyl)phenyl 2-cyclohexylacetate], the negative-log IC50 (pIC50) is 7.62.
`O=C(CCCc1ccccc1)Oc1ccc(/C=C2\SC(=O)NC2=O)cc1Br` [Compound 29, (Z)-2-bromo-4-((2,4-dioxothiazolidin-5-ylidene)methyl)phenyl 4-phenylbutanoate] had a pIC50 of 7.84. Compared with the last compound, the pIC50 is 0.22 log units higher.
Still for that read-out and setting: under `COc1cc(/C=C2\SC(=O)NC2=O)ccc1OC(=O)CCCCc1ccccc1` [Compound 45, (Z)-4-((2,4-dioxothiazolidin-5-ylidene)methyl)-2-methoxyphenyl 5-phenylpentanoate] stands 7.41; under `O=C1NC(=O)/C(=C/c2ccc(OC(=O)C3CC3)c(Br)c2)S1` [Compound 16, (Z)-2-bromo-4-((2,4-dioxothiazolidin-5-ylidene)methyl)phenyl cyclopropanecarboxylate], 6.66.
